# What was measured:
# hippocampal neurons = test: Neurite outgrowth of hippocampal neurons transfected with dominant negative FGFR; format: cell-based, rat; settings: 10 ng/ml GDNF or 3 μg/ml GDNFp1, 18 hours, dnFGFR vs empty vector
# Method: For cocultures, L-cells were seeded in 8-well LabTek® Permanox Chamber slides at a density of 100.000 cells/well, except for transfection experiments where cells were seeded in 4-well LabTek® Permanox Chamber slides at a density of 200.000 cells/well. L-cells were grown for 24 hours in DMEM supplemented with 10% (v/v) FCS, 1% (v/v) glutamax, 100 U/ml penicillin, 100 μg/ml streptomycin, 2.5 μg/ml fungizone, and 567 μg/ml neomycin (G418), followed by washing twice in neurobasal medium with supplements before primary hippocampal neurons were seeded at a density of 7.000 cells/well in 8-well slides or 20.000 cells/well in 4-well slides.
# Additionally, neurons were transiently transfected with a dominant negative version of the FGFR (dnFGFR), As an alternative to the use of a pharmacological FGFR inhibitor, The dnFGFR plasmid encodes an FGFR that lacks the kinase domain. This mutant receptor inhibits the function of wild type FGFR by engaging in dimers that lack kinase activity. Transfection with an empty vector served as control. Transfection was also done with wtFGFR in order to assess the effect of overexpressing the FGFR.
# Transfections were performed with a Nucleofector™ device and a Rat Neuron Nucleofector™ kit (Amaxa Inc., Gaithersburg, Md., USA). This transfection method is based on electroporation in combination with a Nucleofector™ solution containing lipophilic agents. These agents form liposomes containing the plasmid DNA, which then enter the cells during electroporation. The method allows transfection of undividing cells such as neurons. 3 μg of the plasmid of interest was mixed with the Nucleofector™ solution and primary hippocampal neurons were resuspended in the mixture, electroporated in the Nucleofector™ device, and transferred to neurobasal medium with supplements and 5% (v/v) FCS. Cells were then incubated for 2 hours after which they were resuspended in medium without serum, counted, seeded and incubated for 6 hours before GDNF or GDNFp1 was added. Medium alone was added to control and cells were incubated for 18 hours.
# All transient transfections in this study included co-transfection with a plasmid encoding EGFP, which allows the identification of transfected cells. To ensure that all EGFP-expressing cells also are transfected with the plasmid of interest, a ratio of […] between the EGFP-encoding plasmid and the plasmid of interest was used (i.e. 0.5 μg EGFP-encoding plasmid was used for each transfection).
# Neurite outgrowth experiments were terminated after the stated time by fixating the cells. To visualize neurons and their neurites, immunostaining of GAP-43 was performed. This staining is specific for neurons. Transfected cells and their neurites should be visible without immunostaining due to the fluorescence emitted by GFP. […]
# dopaminergic neurons = test: Survival assay, dopaminergic neurons (6-OHDA); format: cell-based, Wistar rat; settings: 100 μM 6-OHDA for two hours, further 24 hours with peptide
# Method: Dopaminergic neurons were prepared from Wistar rat embryos at embryonic day 15 (Charles River, Sulzfeld, Germany or Møllegaard, Denmark). A pregnant rat was sacrificed and the uterus was taken out and kept on ice in Hank's balanced salt solution (HBSS; Gibco, BRL). The ventral part of the mesencephalon was dissected from the embryonic brains, homogenised on ice in Gey's balanced salt solution (GBSS; Gibco, BRL) supplemented with 5 g glucose/l (Sigma-Aldrich) and thereafter trypsinised. The dissociated cells were washed in the presence of DNAse 1 and soybean trypsin inhibitor (Sigma-Aldrich).
# Dopaminergic neurons were seeded at a density of 150,000 cells/cm^2 in 24-well cell culture plates coated with poly-D-lysine as described above. The neurons were left to differentiate for six days without or with various concentrations of peptide, after which 6-OHDA was added at a concentration of 100 μM for two hours. A stock solution was prepared by dissolving 6-OHDAto a concentration of 10 mM in 0.1% (w/v) sodium metabisulphite in order to prevent oxidation. After two hours with 6-OHDA, the medium was changed to Neurobasal medium with supplements and peptide, and the cell cultures were further incubated for 24 hours, fixed and immunostained for tyrosine hydroxylase. 98 images for each experimental condition in each individual experiment were automatically video-recorded.
# Ig1-2 modules of NCAM = test: Surface plasmon resonance (SPR) binding analysis, NCAM Ig1-2; settings: immobilized receptor protein, 25° C., PBS pH 7.4
# Method: Analysis of binding was performed employing a BIAcoreX instrument (Biosensor AB, Uppsala, Sweden) at 25° C. using 10 mM pH 7.4 sodium phosphate containing 150 mM NaCl as running buffer (phosphate-buffered saline, PBS). The flow-rate was 5 μl/min. Data were analysed by non-linear curve-fitting using the manufacturer's software. The receptor proteins, e.g. NCAM Ig1-Ig2 and GFR proteins, were immobilized on a sensor chip CM5 using an amine coupling kit (Biosensor AB) as follows: the chip was activated by 20 μl activation solution; the protein was immobilized using 12 μl 20 μg/ml protein in 10 mM sodium phosphate buffer pH 6.0; the chip was blocked by 35 μl blocking solution. Various peptides at the indicated concentrations were injected into the sensor chip. The curve corresponding to the difference between binding to receptor and a blank chip was used for analysis.
sequence,measurement,setting,value
"ETTYDKILKNLSRNR (listed as Homo sapiens) [G2, GDNF fragment]","neurite outgrowth mediated by the substance after transfection with dominant negative FGFR, on NCAM-expressing fibroblasts",hippocampal neurons; NCAM-expressing fibroblasts,decreases neurite outgrowth
same,"neurite outgrowth mediated by the substance after transfection with dominant negative FGFR, on control fibroblasts",hippocampal neurons; control fibroblasts,decreases neurite outgrowth
same,survival of dopaminergic neurons,dopaminergic neurons,increases the survival of dopaminergic neurons
same,binding to the Ig1-2 modules of NCAM (SPR),Ig1-2 modules of NCAM,Binding

# From patent US8138148B2, “GDNF derived peptides” (Copenhagen University, priority 2005, dated 2012)
